test: Inhibition of HCV RNA replication in Huh5-2 cells after 48 hrs

Point of comparison: O=C(O)c1ccc2c(c1)nc(-c1ccc(OC(c3ccc(Cl)cc3)c3ccc(Cl)cc3)cc1)n2C1CCCCC1 [2-(4-(bis(4-chlorophenyl)methoxy)phenyl)-1-cyclohexyl-1H-benzo[d]imidazole-5-carboxylic acid], EC50 3.6 µM. Against it:
- O=C(O)c1ccc2c(c1)nc(-c1ccc(OC(c3ccccc3)c3cccnc3)cc1F)n2C1CCCCC1 (stereo not given) [1-Cyclohexyl-2-[2-fluoro-4-(phenyl-pyridin-3-yl-methoxy)-phenyl]-1H-benzoimidazole-5-carboxylic acid] — 3.3-fold lower, 1.1 µM
- O=C(O)c1ccc2c(c1)nc(-c1ccc(OC(c3cccnc3)c3cccnc3)cc1F)n2C1CCCCC1 [1-Cyclohexyl-2-[4-(di-pyridin-3-yl-methoxy)-2-fluoro-phenyl]-1H-benzoimidazole-5-carboxylic acid] — within 1.5-fold, 2.6 µM
- Cc1ccc(C(Oc2ccc(-c3nc4cc(C(=O)O)ccc4n3C3CCCCC3)cc2)c2ccc(C)cc2)cc1 [1-cyclohexyl-2-(4-(dip-tolylmethoxy)phenyl)-1H-benzo[d]imidazole-5-carboxylic acid] — within 1.5-fold, 3.7 µM
- O=C(O)c1ccc2c(c1)nc(-c1ccc(OC(c3ccccc3)c3ccccc3)cc1F)n2C1CCCCC1 [2-(4-(benzhydryloxy)-2-fluorophenyl)-1-cyclohexyl-1H-benzo[d]imidazole-5-carboxylic acid] — 1.9-fold lower, 1.9 µM
- O=C(O)c1ccc2c(c1)nc(-c1ccc(OC(c3ccccc3)c3ccccc3)cc1)n2C1CCCCC1 [2-(4-(benzhydryloxy)phenyl)-1-cyclohexyl-1H-benzo[d]imidazole-5-carboxylic acid] — within 1.5-fold, 2.6 µM
- O=C(O)c1ccc2c(c1)nc(-c1ccc(OC(c3cccc(F)c3)c3cccc(F)c3)cc1)n2C1CCCCC1 [2-(4-(bis(3-fluorophenyl)methoxy)phenyl)-1-cyclohexyl-1H-benzo[d]imidazole-5-carboxylic acid] — within 1.5-fold, 2.8 µM
- O=C(O)c1ccc2c(c1)nc(-c1ccc(OC(c3ccc(F)cc3)c3ccc(F)cc3)cc1F)n2C1CCCCC1 [2-(4-(bis(4-fluorophenyl)methoxy)-2-fluorophenyl)-1-cyclohexyl-1H-benzo[d]imidazole-5-carboxylic acid] — 2.2-fold lower, 1.6 µM
- O=C(O)c1ccc2c(c1)nc(-c1ccc(OC(c3ccc(F)cc3)c3ccc(F)cc3)cc1)n2C1CCCCC1 [2-(4-(bis(4-fluorophenyl)methoxy)phenyl)-1-cyclohexyl-1H-benzo[d]imidazole-5-carboxylic acid] — 1.6-fold lower, 2.2 µM
- CN(C)C(=O)c1ccc(C(Oc2ccc(-c3nc4cc(C(=O)O)ccc4n3C3CCCCC3)c(F)c2)c2ccc(C(=O)N(C)C)cc2)cc1 [2-{4-[Bis-(4-dimethylcarbamoyl-phenyl)-methoxy]-2-fluoro-phenyl}-1-cyclohexyl-1H-benzoimidazole-5-carboxylic acid] — 3-fold lower, 1.2 µM
